Several values for one entry are separate records, joined by “and”; a condition that tells them apart may be missing. Identical values can stand only once. Like-named read-outs stand apart in the source and are kept apart here.
What was measured:
[1] = Phase 1 fixed-sequence drug-drug interaction study: plasma pharmacokinetics of single-dose fedratinib with and without fluconazole; format: in vivo, human; conditions: for Vd/F: read-out: Vz/F, geometric mean (geometric CV%); for half-life: read-out: t1/2 (terminal elimination), geometric mean (geometric CV%) (converted)
Source text: This was an open-label Phase 1 study to evaluate the effect of multiple doses of fluconazole on the PK, safety, and tolerability of a single dose of fedratinib in healthy adult participants (NCT04702464). Healthy men and women aged 18–65 years with body mass index (BMI) ≥ 18 and ≤ 33 kg/m^2 at screening were enrolled at one site in the USA. Participants were confirmed to be healthy based on medical history, physical examination, clinical laboratory test results, vital signs, and 12-lead electrocardiogram (ECG) at screening and check-in (day − 1). Aspartate aminotransferase, alanine aminotransferase, and total bilirubin must have been at or below the upper limit of the reference range on or before check-in (day − 1). Other clinical parameters and laboratory results were either within normal range or deemed not clinically significant by the investigator. Women of childbearing potential were required to have a negative pregnancy test result and to use birth control.
This was a non-randomized, fixed-sequence, open-label study consisting of a screening phase, treatment phase (including baseline), and follow-up telephone call (Fig. 1). The fixed-sequence crossover design of this study was selected to remove intersubject variability from comparison between treatments. Healthy participants were chosen to mitigate the potential confounding effects of disease state or other concomitant medications likely to be present in a population of patients with myelofibrosis.
Participants resided at the clinical site from day − 1 to day 27. A single oral dose of fedratinib 100 mg was administered under fasted conditions on day 1. Participants received fluconazole 400 mg on day 10 and fluconazole 200 mg once daily on days 11–23. On day 18, participants received a single oral dose of fedratinib 100 mg, under fasted conditions, with fluconazole 200 mg. No food or beverages (except water) were allowed for at least 4 h after dosing; water was allowed as desired except for 1 h before and 1 h after each dose. Participants received ondansetron 8 mg by mouth approximately 1 h before each fedratinib administration to reduce the potential for fedratinib-related nausea and vomiting, with the option of a subsequent oral dose(s) of ondansetron as necessary. Fluconazole is not expected to have a clinically meaningful impact on the PK of ondansetron as ondansetron is metabolized by multiple enzymes including CYP1A1/2, CYP3A4, and CYP2D6 [28]. […] Participants were discharged from the clinical site on day 27 and received a follow-up telephone call 4 days (± 2 days) after discharge. In the event that participants discontinued the study for any reason, an early termination (ET) visit was performed. Only safety assessments scheduled for the day of discharge were performed at the ET visit. Participants who discontinued the study also received a follow-up telephone call 4 days (± 2 days) after discharge. Participants who discontinued the study due to inclement weather returned to the clinic to complete the ET visit at a later date.
On days 1 and 18, blood samples for determination of fedratinib plasma concentrations were collected before each dose and 0.5, 1, 1.5, 2, 3, 4, 6, 8, 12, 24, 48, 72, 120, 168, and 216 h post-dose. Plasma fedratinib concentrations were measured using a validated liquid chromatography–tandem mass spectrometry assay with a lower limit of quantification (LLOQ) of 1.00 ng/mL [19].
Plasma PK parameters were calculated using noncompartmental methods. The PK parameters determined for fedratinib were maximum observed plasma concentration (Cmax), time to Cmax (Tmax), AUC from time 0 to the time of the last quantifiable concentration (AUC0–t), AUC from time 0 to infinity (AUC0–∞), terminal elimination t1/2, apparent total plasma clearance (CL/F), and apparent total volume of distribution during the terminal phase (Vz/F). […]

[2] = Safety and tolerability assessment (adverse event monitoring) in the Phase 1 study; format: in vivo, human
Protocol: Safety assessments included adverse event (AE) monitoring, review of concomitant medications and procedures, physical examinations, vital signs measurements, 12-lead ECGs, and clinical laboratory safety tests. All AEs were recorded from the time of informed consent until study completion, and up to 30 days after the last dose of fluconazole if reported to the investigator.

CYP3A4 = system: CYP3A4; design: method as in PMID 32886148; conditions: 0.1 μM fedratinib, different hepatocyte preparations; cited from earlier work
CYP2C19 (liver) = system: CYP2C19 (liver); design: method as in PMID 32886148; conditions: after first dose of 400 mg once-daily fedratinib, healthy participants; cited from earlier work
CYP3A4 (liver) = system: CYP3A4 (liver); design: method as in PMID 32886148; conditions: after first dose of 400 mg once-daily fedratinib, healthy participants; cited from earlier work
[3] = design: method as in PMID 32748109; conditions: healthy adult men, oral dose of [14C]-fedratinib 200 mg; cited from earlier work
[4] = cited from earlier work
[5] = design: method as in PMID 32886148; conditions: PBPK simulations; cited from earlier work
[6] = design: method as in PMID 32248324; conditions: cited from earlier work
[7] = design: method as in PMID 34019108; conditions: healthy adults; cited from earlier work
myelofibrosis = system: myelofibrosis; design: method as in PMID 34331348; conditions: double-blind Phase 3, NCT01437787; cited from earlier work
[8] = in vivo; cited from earlier work
[9] = design: method as in PMID 12867217; conditions: cited from earlier work
[10] = design: method as in PMID 31324935; conditions: cited from earlier work
[11] = compared with fedratinib alone, single oral dose 100 mg
[12] = fedratinib 100 mg + fluconazole 200 mg once daily (test) vs fedratinib 100 mg (reference)
[13] = healthy men, single dose fedratinib 300 mg with ketoconazole vs alone

## Cc1cnc(Nc2ccc(OCCN3CCCC3)cc2)nc1Nc1cccc(S(=O)(=O)NC(C)(C)C)c1 [fedratinib]
[1]; Hodges–Lehmann estimate, 90% CI 0.00–1.00, p = 0.156
  Tmax median difference between fedratinib with fluconazole and fedratinib alone: 0.5 h
[1]; both sexes, human, plasma, oral, 100 mg fedratinib + 200 mg fluconazole once daily (test), n = 5, read-out: AUC0–∞, geometric mean from ANOVA model
  AUC(0-inf): 4100 ng·h/mL
[1]; both sexes, human, plasma, oral, 100 mg, 100 mg fedratinib (reference), n = 7, read-out: AUC0–∞, geometric mean from ANOVA model
  AUC(0-inf): 2410 ng·h/mL
[1]; both sexes, human, plasma, oral, 100 mg fedratinib (reference), n = 16, read-out: AUC0–t, geometric mean from ANOVA model
  AUC(0-t): 1900 ng·h/mL
[1]; both sexes, human, plasma, oral, 100 mg fedratinib (reference), n = 16, read-out: Cmax, geometric mean from ANOVA model
  Cmax: 121 ng/mL
[1]; both sexes, human, plasma, oral, 100 mg fedratinib + 200 mg fluconazole once daily (test), n = 16, read-out: Cmax, geometric mean from ANOVA model
  Cmax: 146 ng/mL
[1]; both sexes, human, plasma, oral, fedratinib 100 mg + fluconazole 200 mg once daily, n = 5, read-out: AUC0–∞, geometric mean (geometric CV%)
  AUC(0-inf): 4200 ng·h/mL
[1]; both sexes, human, plasma, oral, fedratinib 100 mg + fluconazole 200 mg once daily, n = 5
  Vd/F: 3560 L
[1]; both sexes, human, plasma, oral, fedratinib 100 mg + fluconazole 200 mg once daily, n = 16, read-out: AUC0–t, geometric mean (geometric CV%)
  AUC(0-t): 2970 ng·h/mL
[1]; both sexes, human, plasma, oral, fedratinib 100 mg + fluconazole 200 mg once daily, n = 16
  half-life: 138 h
[1]; both sexes, human, plasma, po, 100 mg, fedratinib 100 mg single oral dose alone, n = 7, read-out: AUC0–∞, geometric mean (geometric CV%)
  AUC(0-inf): 2360 ng·h/mL
[1]; both sexes, human, plasma, fedratinib 100 mg single oral dose + fluconazole 200 mg once daily, healthy adults, n = 16, read-out: Cmax, geometric mean (geometric CV%)
  Cmax: 146 ng/mL
[1]; both sexes, human, plasma, fedratinib 100 mg single oral dose alone, fasted, healthy adults, n = 16, read-out: Cmax, geometric mean (geometric CV%)
  Cmax: 121 ng/mL
[1]; both sexes, human, plasma, fedratinib 100 mg single oral dose alone, n = 7
  Vd/F: 6500 L
[1]; both sexes, human, plasma, fedratinib 100 mg single oral dose alone, n = 16, read-out: AUC0–t, geometric mean (geometric CV%)
  AUC(0-t): 1900 ng·h/mL
[1]; both sexes, human, plasma, fedratinib 100 mg single oral dose alone, n = 16, read-out: Tmax, median (min, max)
  Tmax: 2 h
[1]; both sexes, human, plasma, fedratinib 100 mg single oral dose alone, n = 16
  half-life: 125 h
[1]; [11]
  Increase in fedratinib AUC0–t on coadministration with fluconazole: 56%
  Increase in fedratinib Cmax on coadministration with fluconazole: 21%
[1]; [12]
  AUC0–t: ratio (%) of geometric LS means, test/reference (90% CI): 156% and 156 (145, 168) %
  Cmax: ratio (%) of geometric LS means, test/reference (90% CI): 121% and 121 (108, 135) %
[1]; fedratinib 100 mg + fluconazole 200 mg once daily (test, n = 5) vs fedratinib 100 mg (reference, n = 7)
  AUC0–∞: ratio (%) of geometric LS means, test/reference (90% CI): 170 (143, 202) %
[1]; fedratinib 100 mg + fluconazole 200 mg once daily, n = 5
  CL/F, geometric mean (geometric CV%): 23.8 (40.2) L/h
[1]; fedratinib 100 mg + fluconazole 200 mg once daily, n = 16
  Tmax, median (min, max): 2.00 (1.02, 6.00) h
[1]; fedratinib 100 mg single oral dose alone, n = 7
  CL/F, geometric mean (geometric CV%): 42.3 (21.9) L/h
[1]; in vivo
  Difference in terminal t1/2 of fedratinib alone vs in combination with fluconazole: no significant difference
[1]; observed in this study
  Increase in fedratinib exposure by fluconazole (in words): less than twofold increase
[1]; single oral dose, compared with fedratinib alone
  Increase in systemic exposure to fedratinib on coadministration with fluconazole: up to 56%
[2]; during treatment with fedratinib 100 mg alone, 3 participants
  Participants with treatment-emergent adverse events (TEAEs): 10.3%
[2]; during treatment with fedratinib 100 mg plus fluconazole 200 mg, 1 participant
  Participants with treatment-emergent adverse events (TEAEs): 6.3%
[2]; fedratinib 100 mg with or without fluconazole, healthy adults
  Tolerability of single oral doses: well tolerated
CYP3A4
  CYP3A4 share of the total CYP contribution to metabolism: 0–67%
CYP2C19 (liver)
  Mean fraction of metabolism or excretion in relation to systemic clearance: 16%
CYP3A4 (liver)
  Mean fraction of metabolism or excretion in relation to systemic clearance: 64%
[3]
  Share of total circulating drug in plasma accounted for by fedratinib: approximately 80%
[4]
  Effective t1/2: around 40 h
  Terminal elimination half-life (t1/2): around 114 h
[4]; healthy participants and patients with myelofibrosis
  Effective t1/2: ~ 40 h
[5]
  Predicted increase in fedratinib exposure on coadministration of fluconazole (dual CYP2C19 and CYP3A4 inhibitor) vs fedratinib alone: up to a fourfold increase
[6]
  Effect of ketoconazole coadministration on fedratinib Tmax: no effect on Tmax
[6]; [13]
  Increase in fedratinib AUC0–t by ketoconazole: 3.20 fold
  Increase in fedratinib Cmax by ketoconazole: 1.93 fold
[7]
  Effect of CYP3A4 inducers rifampin and efavirenz on fedratinib exposure: decrease fedratinib exposure
myelofibrosis
  Proportion of patients reaching primary (≥ 35% reduction in spleen volume) and secondary (≥ 50% reduction in symptom score) endpoints vs placebo: greater proportion
[8]
  Tolerability of single doses: generally well tolerated

## OC(Cn1cncn1)(Cn1cncn1)c1ccc(F)cc1F [fluconazole]
[2]; during treatment with fluconazole 200 mg alone, 2 participants
  Participants with treatment-emergent adverse events (TEAEs): 7.4%

## Cc1nccn1CC1CCc2c(c3ccccc3n2C)C1=O (stereo not drawn) [ondansetron]
[9]
  Change in AUC on coadministration with the moderate CYP3A inhibitor aprepitant: no clinically significant change

## N#CC[C@H](C1CCCC1)n1cc(-c2ncnc3[nH]ccc23)cn1 [ruxolitinib]
[10]
  Increase in exposure on coadministration with fluconazole: 234%

— publication PMC9399588, “Effect of fluconazole on the pharmacokinetics of a single dose of fedratinib in healthy adults” (Cancer Chemotherapy and Pharmacology, 2022)
